Consider 44 molecules from ChEMBL document CHEMBL1136112, “Novel inhibitors of procollagen C-proteinase. Part 2: glutamic acid hydroxamates” (Bioorg Med Chem Lett, 2003).

Assay [1] deals with T1, Bone morphogenetic protein 1 (Homo sapiens, UniProt P13497).
T1 sequence (P13497 whole entry): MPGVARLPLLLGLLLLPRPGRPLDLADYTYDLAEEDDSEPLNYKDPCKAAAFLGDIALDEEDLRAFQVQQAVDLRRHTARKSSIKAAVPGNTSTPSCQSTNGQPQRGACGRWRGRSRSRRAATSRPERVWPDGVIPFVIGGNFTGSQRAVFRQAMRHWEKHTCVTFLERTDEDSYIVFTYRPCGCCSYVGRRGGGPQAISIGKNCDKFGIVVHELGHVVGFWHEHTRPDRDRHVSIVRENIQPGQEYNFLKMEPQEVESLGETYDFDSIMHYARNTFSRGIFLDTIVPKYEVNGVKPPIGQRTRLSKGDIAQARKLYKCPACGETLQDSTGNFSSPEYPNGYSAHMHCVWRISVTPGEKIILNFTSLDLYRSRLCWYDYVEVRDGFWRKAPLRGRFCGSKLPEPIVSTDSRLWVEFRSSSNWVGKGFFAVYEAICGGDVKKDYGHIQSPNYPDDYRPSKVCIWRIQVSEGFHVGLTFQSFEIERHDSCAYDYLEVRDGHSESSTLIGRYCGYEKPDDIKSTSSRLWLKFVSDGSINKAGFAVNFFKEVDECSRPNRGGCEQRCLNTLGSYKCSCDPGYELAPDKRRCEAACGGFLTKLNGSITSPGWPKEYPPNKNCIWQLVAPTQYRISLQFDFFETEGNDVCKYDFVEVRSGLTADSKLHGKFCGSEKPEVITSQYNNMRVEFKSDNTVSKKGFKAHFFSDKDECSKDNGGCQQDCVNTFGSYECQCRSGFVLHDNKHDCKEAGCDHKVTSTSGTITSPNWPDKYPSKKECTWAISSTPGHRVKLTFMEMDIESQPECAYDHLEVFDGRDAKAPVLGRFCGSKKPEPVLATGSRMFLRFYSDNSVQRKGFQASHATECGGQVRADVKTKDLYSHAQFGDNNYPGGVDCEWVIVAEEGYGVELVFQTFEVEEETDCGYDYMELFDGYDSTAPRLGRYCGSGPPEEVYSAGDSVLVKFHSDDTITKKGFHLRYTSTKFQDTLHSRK
As to the kind of experiment: Ability to inhibit procollagen C-terminal proteinase (PCP) tested in vitro.

Another assay concerns the target T2, Interstitial collagenase (Homo sapiens, UniProt P03956).
T2 sequence (P03956 whole entry): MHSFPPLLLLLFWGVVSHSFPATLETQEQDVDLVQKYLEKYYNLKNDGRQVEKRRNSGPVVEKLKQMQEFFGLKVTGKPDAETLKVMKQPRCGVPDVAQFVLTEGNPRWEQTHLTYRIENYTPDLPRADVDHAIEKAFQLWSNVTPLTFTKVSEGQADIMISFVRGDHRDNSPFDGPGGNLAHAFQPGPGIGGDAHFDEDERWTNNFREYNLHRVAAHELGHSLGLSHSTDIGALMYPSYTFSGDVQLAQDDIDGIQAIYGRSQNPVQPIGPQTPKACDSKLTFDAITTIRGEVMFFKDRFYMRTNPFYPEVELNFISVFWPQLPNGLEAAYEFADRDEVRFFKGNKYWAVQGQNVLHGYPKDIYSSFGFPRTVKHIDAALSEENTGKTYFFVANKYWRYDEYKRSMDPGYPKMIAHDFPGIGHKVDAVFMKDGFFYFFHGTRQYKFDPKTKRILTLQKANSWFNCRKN
As to the kind of experiment: Inhibition of matrix metalloprotease-1.

Another assay deals with Neutrophil collagenase (Homo sapiens, UniProt P22894). In words: Inhibition of MMP-8.

By Ki is commonly meant the dissociation constant of the complex between target and ligand, obtained from inhibition or displacement.

Chain of Neutrophil collagenase (P22894 whole entry): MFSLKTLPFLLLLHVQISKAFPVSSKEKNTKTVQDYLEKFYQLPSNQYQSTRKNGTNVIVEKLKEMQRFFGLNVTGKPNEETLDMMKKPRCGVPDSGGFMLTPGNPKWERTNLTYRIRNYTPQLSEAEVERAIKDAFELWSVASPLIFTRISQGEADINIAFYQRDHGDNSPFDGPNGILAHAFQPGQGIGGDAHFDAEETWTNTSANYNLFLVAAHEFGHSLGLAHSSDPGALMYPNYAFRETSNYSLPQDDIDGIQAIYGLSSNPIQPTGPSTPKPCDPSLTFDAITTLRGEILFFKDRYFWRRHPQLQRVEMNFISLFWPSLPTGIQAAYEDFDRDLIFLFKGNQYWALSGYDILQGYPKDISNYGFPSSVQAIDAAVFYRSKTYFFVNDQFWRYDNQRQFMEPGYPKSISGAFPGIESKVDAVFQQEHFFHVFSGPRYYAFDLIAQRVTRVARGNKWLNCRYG

For `COc1ccc(S(=O)(=O)N(Cc2ccc3c(c2)OCO3)[C@H](CCC(=O)N2CCC(Cc3ccccc3)CC2)C(=O)NO)cc1`, affinity in assay [1] was put at a Ki of 120 nM.

`COc1ccc(S(=O)(=O)N(Cc2ccc3c(c2)OCO3)[C@H](CCC(=O)N(CCC#N)Cc2cccnc2)C(=O)NO)cc1` yielded a Ki in assay [1] of 480 nM.

In turn, `COC(=O)CC[C@H](C(=O)NO)N(Cc1ccc2c(c1)OCO2)S(=O)(=O)c1ccc(OC)cc1` came in with an inhibition constant (Ki) in assay [1] of 300 nM.

In assay [1], `COC(=O)CC[C@H](C(=O)NO)N(Cc1ccc(OC)cc1)S(=O)(=O)c1ccc(OC)cc1` showed a Ki of 15000 nM. Against the preceding molecule, the Ki is about 50-fold higher.

Regarding `CCOC(=O)N1CCN(C(=O)CC[C@H](C(=O)NO)N(Cc2ccc3c(c2)OCO3)S(=O)(=O)c2c(C)cc(OC)c(C)c2C)CC1`, the inhibition constant (Ki) at Interstitial collagenase was 32000 nM; in assay [1] it was 43 nM; at Neutrophil collagenase, 30000 nM.

Consider `COc1ccc(S(=O)(=O)N(Cc2ccc3c(c2)OCO3)[C@H](CCC(=O)NCC2CCCCC2)C(=O)NO)cc1`, for which, in assay [1], the inhibition constant Ki amounted to 410 nM.

As for `COc1ccc(S(=O)(=O)N(Cc2ccc3c(c2)OCO3)[C@H](CCC(=O)NCc2ccc(-c3ccccc3)cc2)C(=O)NO)cc1`, the inhibition constant (Ki) in assay [1] was determined as 11 nM. This Ki is about 37-fold lower than that of the molecule before.

On to `COc1ccc(NC(=O)N2CCN(C(=O)CC[C@H](C(=O)NO)N(Cc3ccc4c(c3)OCO4)S(=O)(=O)c3ccc(OC)cc3)CC2)cc1`, for which the inhibition constant (Ki) in assay [1] amounted to 90 nM.

With `COC(=O)C[C@H](C(=O)NO)N(Cc1ccc2c(c1)OCO2)S(=O)(=O)c1ccc(OC)cc1`, in assay [1], affinity was put at a Ki of 950 nM.

For the molecule `COc1ccc(S(=O)(=O)N(Cc2ccc3c(c2)OCO3)[C@H](CCC(=O)N2CCN(c3ccccc3)CC2)C(=O)NO)cc1`, the Ki in assay [1] turned out to be 340 nM.

Turning to `COC(=O)CC[C@H](C(=O)NO)N(Cc1ccc(C(F)(F)F)cc1)S(=O)(=O)c1ccc(OC)cc1`, the Ki in assay [1] was > 40000 nM.

Turning to `COc1ccc(S(=O)(=O)N(Cc2ccc3c(c2)OCO3)[C@H](CCC(=O)N(CCc2ccccc2)Cc2ccccc2)C(=O)NO)cc1`, the affinity in assay [1] corresponds to a Ki of 100 nM.

As for `COC(=O)CC[C@H](C(=O)NO)N(Cc1ccc(Br)cc1)S(=O)(=O)c1ccc(OC)cc1`, the Ki in assay [1] is > 40000 nM.

In assay [1], `COc1ccc(S(=O)(=O)N(Cc2ccc3c(c2)OCO3)[C@H](CCC(=O)NCC2CC2)C(=O)NO)cc1` gave a Ki of 660 nM.

In assay [1], `COc1ccc(S(=O)(=O)N(Cc2ccc3c(c2)OCO3)[C@H](CCC(=O)N2CCN(C(=O)c3ccco3)CC2)C(=O)NO)cc1` displayed an inhibition constant Ki of 40 nM. Compared with the last molecule, the Ki is about 16-fold lower.

As to `COc1cc(C)c(S(=O)(=O)N(Cc2ccc3c(c2)OCO3)[C@H](CCC(=O)N2CCN(C(C)=O)CC2)C(=O)NO)c(C)c1C`, the Ki at Interstitial collagenase came to 37000 nM; in assay [1] it was 63 nM; on Neutrophil collagenase it was 7000 nM.

`COc1ccc(S(=O)(=O)N(Cc2ccc3c(c2)OCO3)[C@H](CCC(=O)NCC(C)C)C(=O)NO)cc1` had a Ki in assay [1] of 280 nM.

For `COc1ccc(S(=O)(=O)N(Cc2ccc3c(c2)OCO3)[C@H](CCC(=O)NCc2ccccc2)C(=O)NO)cc1`, the inhibitory constant (Ki) in assay [1] amounted to 98 nM.

In turn, `COc1ccc(S(=O)(=O)N(Cc2ccc3c(c2)OCO3)[C@H](CCC(=O)NCCC(C)C)C(=O)NO)cc1` showed a Ki in assay [1] of 20 nM. Against the preceding molecule, the Ki is about 4.9-fold lower.

`CCN(CC)C(=O)CC[C@H](C(=O)NO)N(Cc1ccc2c(c1)OCO2)S(=O)(=O)c1ccc(OC)cc1` returned an inhibition constant (Ki) in assay [1] of 1300 nM.

`COc1cc(C)c(S(=O)(=O)N(Cc2ccc3c(c2)OCO3)[C@H](CCC(=O)N2CCN(c3ccccc3)CC2)C(=O)NO)c(C)c1C`: the Ki at Interstitial collagenase was > 40000 nM; in assay [1] it was 110 nM; on Neutrophil collagenase, 13000 nM.

In assay [1], `COc1ccc(S(=O)(=O)N(Cc2ccc3c(c2)OCO3)[C@H](CCC(=O)N2CCN(C(=O)Nc3cccc(OC)c3)CC2)C(=O)NO)cc1` came in with a Ki of 105 nM.

As for `COc1ccc(S(=O)(=O)N(Cc2ccc3c(c2)OCO3)[C@H](CCC(=O)N2CCN(S(C)(=O)=O)CC2)C(=O)NO)cc1`, the Ki in assay [1] was determined as 340 nM.

In assay [1], `COc1ccc(S(=O)(=O)N(Cc2ccc3c(c2)OCO3)[C@H](CCC(=O)NCc2cccnc2)C(=O)NO)cc1` gave an inhibitory constant (Ki) of 160 nM.

For the molecule `COc1ccc(S(=O)(=O)N(Cc2ccc3c(c2)OCO3)[C@H](CCC(=O)N2CCN(Cc3ccccn3)CC2)C(=O)NO)cc1`, in assay [1], the Ki was > 1000 nM.

Turning to `CCNC(=O)CC[C@H](C(=O)NO)N(Cc1ccc2c(c1)OCO2)S(=O)(=O)c1ccc(OC)cc1`, the affinity in assay [1] corresponds to a Ki of 1200 nM.

The molecule `COc1ccc(S(=O)(=O)N(Cc2ccc3c(c2)OCO3)[C@H](CCC(=O)N2CCN(Cc3ccccc3)CC2)C(=O)NO)cc1` gave a Ki in assay [1] of 740 nM. This Ki lies about 1.6-fold lower than the previous one.

In the case of `COc1ccc(S(=O)(=O)N(Cc2ccc3c(c2)OCO3)[C@H](CCC(=O)N2CCN(c3ccccn3)CC2)C(=O)NO)cc1`, the inhibition constant Ki in assay [1] is 210 nM.

For the molecule `COc1ccc(S(=O)(=O)N(Cc2ccc3c(c2)OCO3)[C@H](CCC(=O)NCc2ccccn2)C(=O)NO)cc1`, in assay [1], the Ki stood at 530 nM.

In the case of `COC(=O)CC[C@H](C(=O)NO)N(Cc1ccc(C)c([N+](=O)[O-])c1)S(=O)(=O)c1ccc(OC)cc1`, the inhibition constant Ki in assay [1] is > 40000 nM.

Consider `COc1ccc(S(=O)(=O)N(Cc2ccc3c(c2)OCO3)[C@H](CCC(=O)N(Cc2ccccc2)Cc2ccccc2)C(=O)NO)cc1`, for which affinity in assay [1] was put at a Ki of 400 nM.

The molecule `COc1ccc(S(=O)(=O)N(Cc2ccc3c(c2)OCO3)[C@H](CCC(=O)N2CCN(C)CC2)C(=O)NO)cc1` displayed a Ki in assay [1] of 1000 nM. This Ki lies about 2.5-fold higher than the previous one.

Regarding `COc1ccc(S(=O)(=O)N(Cc2ccc3c(c2)OCO3)[C@H](CCC(=O)N2CCN(Cc3ccncc3)CC2)C(=O)NO)cc1`, the Ki in assay [1] is > 1000 nM.

Consider `COc1ccc(S(=O)(=O)N(Cc2ccc3c(c2)OCO3)[C@H](CCC(=O)N(CCC#N)Cc2ccccc2)C(=O)NO)cc1`, for which the inhibitory constant (Ki) in assay [1] was found to be 33 nM.

Take `COc1ccc(S(=O)(=O)N(Cc2ccc3c(c2)OCO3)[C@H](CCC(=O)N2CCNCC2)C(=O)NO)cc1`: affinity in assay [1] was put at a Ki of 1200 nM.

Consider `COc1ccc(S(=O)(=O)N(Cc2ccc3c(c2)OCO3)[C@H](CCC(=O)N2CCN(C(C)=O)CC2)C(=O)NO)cc1`, for which the figures for the inhibition constant (Ki) (on Interstitial collagenase; in assay [1]; on Neutrophil collagenase) were 120 nM, 200 nM and 9 nM, respectively.

The molecule `COc1ccc(S(=O)(=O)N(Cc2ccc3c(c2)OCO3)[C@H](CCC(=O)N2CCN(C(=O)c3ccccc3)CC2)C(=O)NO)cc1` returned a Ki in assay [1] of 35 nM.

`COc1ccc(S(=O)(=O)N(Cc2ccc3c(c2)OCO3)[C@H](CCC(=O)N2CCOCC2)C(=O)NO)cc1` gave an inhibitory constant (Ki) in assay [1] of 190 nM.

Turning to `CCOC(=O)N1CCN(C(=O)CC[C@H](C(=O)NO)N(Cc2ccc3c(c2)OCO3)S(=O)(=O)c2ccc(OC)cc2)CC1`, the Ki at Interstitial collagenase is 90 nM; in assay [1] it was 64 nM; on Neutrophil collagenase it was 6 nM.

Take `COc1ccc(S(=O)(=O)N(Cc2ccc3c(c2)OCO3)[C@H](CCC(=O)N2CCN(Cc3cccnc3)CC2)C(=O)NO)cc1`: in assay [1], the inhibition constant Ki was 620 nM.

On to `COc1ccc(S(=O)(=O)N(Cc2ccc3c(c2)OCO3)[C@H](CCC(=O)N(C)C)C(=O)NO)cc1`, for which, in assay [1], affinity was put at a Ki of 330 nM.

On to `COc1ccc(S(=O)(=O)N(Cc2ccc3c(c2)OCO3)[C@H](CCC(=O)N2CCN(C(=O)OCc3ccccc3)CC2)C(=O)NO)cc1`, for which the Ki in assay [1] amounted to 260 nM.

`COc1ccc(S(=O)(=O)N(Cc2ccc3c(c2)OCO3)[C@H](CCC(=O)NCc2ccncc2)C(=O)NO)cc1` had a Ki in assay [1] of 1170 nM.

Consider `COc1cc(C)c(S(=O)(=O)N(Cc2ccc3c(c2)OCO3)[C@H](CCC(=O)N2CCN(C(=O)OCc3ccccc3)CC2)C(=O)NO)c(C)c1C`, for which the Ki on Interstitial collagenase was > 40000 nM; in assay [1], 100 nM; at Neutrophil collagenase, 35000 nM.
